In ChEMBL document CHEMBL3885861, “Open TG-GATES”:

Species on record: Rattus norvegicus
Assay: Open TG-GATES - Regimen: Daily Repeat
Type: toxicity, organism-based, Sprague-Dawley
Set-up: regimen Daily Repeat, gender Male, age 6 weeks
Conditions: in vivo, po, 0 mg/kg, route gavage, dose level Control; for APTT / Bas / Eos / Fbg / Hb / Ht / Lym / MCH / MCHC / MCV / Mono / Neu / PT / Plat / RBC / Ret / WBC: tissue Blood; for KIDNEY_L / KIDNEY_R / KIDNEY_TOTAL: tissue Kidney; for LIVER: tissue Liver; for A/G / ALP / ALT / AST / BUN / CRE / Ca / Cl / DBIL / GLC / IP / K / LDH / Na / PL / RALB / TBIL / TC / TG / TP / gamma-GTP: tissue Plasma

In the case of `Nc1ccc(Cc2ccc(N)cc2)cc1`, the TERMINAL_BW (72 h, time 3 day) is reported as 240.9 g, the APTT (72 h, time 3 day) is reported as 13.2 s and the Bas (72 h, time 3 day) is reported as 0%. For the same compound, the Eos (72 h, time 3 day) was 1%, the Fbg (72 h, time 3 day) was 284.6 mg/dL and the Hb (72 h, time 3 day) was 13.1 g/dL. The Ht (72 h, time 3 day) was 38.4%, the Lym (72 h, time 3 day) was 75% and the MCH (72 h, time 3 day) was 21.1 pg. It also gave an MCHC (72 h, time 3 day) of 34%, an MCV (72 h, time 3 day) of 62.1 fL and a Mono (72 h, time 3 day) of 2.8%. The Neu (72 h, time 3 day) was 20.2%, the PT (72 h, time 3 day) was 11.7 s and the Plat (72 h, time 3 day) was 134 x10_4/uL. The RBC (72 h, time 3 day) was 618.2 x10_4/ul, the Ret (72 h, time 3 day) was 6.4% and the WBC (72 h, time 3 day) was 93.3 x10_2/uL. The KIDNEY_L (72 h, time 3 day) was 1 g, the KIDNEY_R (72 h, time 3 day) was 1 g and the KIDNEY_TOTAL (72 h, time 3 day) was 2 g. For the same compound, the LIVER (72 h, time 3 day) was 11.1 g, the A/G (72 h, time 3 day) was 0.8 and the ALP (72 h, time 3 day) was 1856.4 IU/L. The ALT (72 h, time 3 day) was 42 IU/L, the AST (72 h, time 3 day) was 71.6 IU/L and the BUN (72 h, time 3 day) was 15.2 mg/dL. For the same compound, the CRE (72 h, time 3 day) was 0.2 mg/dL, the Ca (72 h, time 3 day) was 11 mg/dL and the Cl (72 h, time 3 day) was 105.4 meq/L. The DBIL (72 h, time 3 day) was 0.018 mg/dL, the GLC (72 h, time 3 day) was 177.2 mg/dL and the IP (72 h, time 3 day) was 7.6 mg/dL. For the same compound, the K (72 h, time 3 day) was 4 meq/L, the LDH (72 h, time 3 day) was 76.6 IU/L and the Na (72 h, time 3 day) was 142.8 meq/L. The PL (72 h, time 3 day) was 139 mg/dL, the RALB (72 h, time 3 day) was 2.6 g/dL and the TBIL (72 h, time 3 day) was 0.038 mg/dL. It also gave a TC (72 h, time 3 day) of 75 mg/dL, a TG (72 h, time 3 day) of 108.2 mg/dL and a TP (72 h, time 3 day) of 5.8 g/dL. It also gave a gamma-GTP (72 h, time 3 day) of 1 IU/L, a TERMINAL_BW ([…], time 7 day) of 282.7 g and a TERMINAL_BW ([…], time 14 day) of 342.6 g. For the same compound, the TERMINAL_BW ([…], time 28 day) was 438.3 g, the APTT ([…], time 7 day) was 15.2 s and the Bas ([…], time 7 day) was 0.2%. The Eos ([…], time 7 day) was 0.8%, the Fbg ([…], time 7 day) was 277.4 mg/dL and the Hb ([…], time 7 day) was 13.6 g/dL. For the same compound, the Ht ([…], time 7 day) was 39.5%, the Lym ([…], time 7 day) was 75.4% and the MCH ([…], time 7 day) was 20.9 pg. It also gave an MCHC ([…], time 7 day) of 34.5%, an MCV ([…], time 7 day) of 60.7 fL and a Mono ([…], time 7 day) of 2.2%. It also gave a Neu ([…], time 7 day) of 20.4%, a PT ([…], time 7 day) of 11.4 s and a Plat ([…], time 7 day) of 137.3 x10_4/uL. The RBC ([…], time 7 day) was 650.6 x10_4/ul, the Ret ([…], time 7 day) was 5.3% and the WBC ([…], time 7 day) was 99.1 x10_2/uL. For the same compound, the APTT ([…], time 14 day) was 14.9 s, the Bas ([…], time 14 day) was 0.2% and the Eos ([…], time 14 day) was 1%. It also gave a Fbg ([…], time 14 day) of 273 mg/dL, a Hb ([…], time 14 day) of 13.4 g/dL and a Ht ([…], time 14 day) of 39%. The Lym ([…], time 14 day) was 73.8%, the MCH ([…], time 14 day) was 20.2 pg and the MCHC ([…], time 14 day) was 34.1%. For the same compound, the MCV ([…], time 14 day) was 59.3 fL, the Mono ([…], time 14 day) was 2.2% and the Neu ([…], time 14 day) was 22.6%. For the same compound, the PT ([…], time 14 day) was 11.2 s, the Plat ([…], time 14 day) was 158.2 x10_4/uL and the RBC ([…], time 14 day) was 661.2 x10_4/ul. For the same compound, the Ret ([…], time 14 day) was 7.2%, the WBC ([…], time 14 day) was 97.7 x10_2/uL and the APTT ([…], time 28 day) was 17.5 s. The Bas ([…], time 28 day) was 0.4%, the Eos ([…], time 28 day) was 0.8% and the Fbg ([…], time 28 day) was 284.2 mg/dL. The Hb ([…], time 28 day) was 14.9 g/dL, the Ht ([…], time 28 day) was 42.2% and the Lym ([…], time 28 day) was 78%. It also gave an MCH ([…], time 28 day) of 20.2 pg, an MCHC ([…], time 28 day) of 35.3% and an MCV ([…], time 28 day) of 57.2 fL. For the same compound, the Mono ([…], time 28 day) was 2%, the Neu ([…], time 28 day) was 17.6% and the PT ([…], time 28 day) was 11.9 s. The Plat ([…], time 28 day) was 120.3 x10_4/uL, the RBC ([…], time 28 day) was 738.4 x10_4/ul and the Ret ([…], time 28 day) was 2.2%. The WBC ([…], time 28 day) was 122.3 x10_2/uL, the KIDNEY_L ([…], time 7 day) was 1.2 g and the KIDNEY_R ([…], time 7 day) was 1.1 g. For the same compound, the KIDNEY_TOTAL ([…], time 7 day) was 2.3 g, the KIDNEY_L ([…], time 14 day) was 1.3 g and the KIDNEY_R ([…], time 14 day) was 1.2 g. It also gave a KIDNEY_TOTAL ([…], time 14 day) of 2.5 g, a KIDNEY_L ([…], time 28 day) of 1.5 g and a KIDNEY_R ([…], time 28 day) of 1.4 g. It also gave a KIDNEY_TOTAL ([…], time 28 day) of 2.9 g, an LIVER ([…], time 7 day) of 12.4 g and an LIVER ([…], time 14 day) of 14.8 g. The LIVER ([…], time 28 day) was 17.8 g, the A/G ([…], time 7 day) was 0.9 and the ALP ([…], time 7 day) was 1837.2 IU/L. It also gave an ALT ([…], time 7 day) of 37 IU/L, an AST ([…], time 7 day) of 63.8 IU/L and a BUN ([…], time 7 day) of 17 mg/dL. For the same compound, the CRE ([…], time 7 day) was 0.2 mg/dL, the Ca ([…], time 7 day) was 11 mg/dL and the Cl ([…], time 7 day) was 106 meq/L. It also gave a DBIL ([…], time 7 day) of 0.022 mg/dL, a GLC ([…], time 7 day) of 177.6 mg/dL and an IP ([…], time 7 day) of 6.8 mg/dL. It also gave a K ([…], time 7 day) of 4.1 meq/L, an LDH ([…], time 7 day) of 65.6 IU/L and a Na ([…], time 7 day) of 143.2 meq/L. For the same compound, the PL ([…], time 7 day) was 138.6 mg/dL, the RALB ([…], time 7 day) was 2.7 g/dL and the TBIL ([…], time 7 day) was 0.066 mg/dL. For the same compound, the TC ([…], time 7 day) was 70.6 mg/dL, the TG ([…], time 7 day) was 106 mg/dL and the TP ([…], time 7 day) was 5.8 g/dL. For the same compound, the gamma-GTP ([…], time 7 day) was 1 IU/L, the A/G ([…], time 14 day) was 0.8 and the ALP ([…], time 14 day) was 1483.2 IU/L. It also gave an ALT ([…], time 14 day) of 36.6 IU/L, an AST ([…], time 14 day) of 58.6 IU/L and a BUN ([…], time 14 day) of 15.4 mg/dL. For the same compound, the CRE ([…], time 14 day) was 0.2 mg/dL, the Ca ([…], time 14 day) was 11 mg/dL and the Cl ([…], time 14 day) was 104.6 meq/L. For the same compound, the DBIL ([…], time 14 day) was 0.022 mg/dL, the GLC ([…], time 14 day) was 172.2 mg/dL and the IP ([…], time 14 day) was 6.3 mg/dL. The K ([…], time 14 day) was 3.9 meq/L, the LDH ([…], time 14 day) was 79.4 IU/L and the Na ([…], time 14 day) was 143.2 meq/L. For the same compound, the PL ([…], time 14 day) was 147 mg/dL, the RALB ([…], time 14 day) was 2.7 g/dL and the TBIL ([…], time 14 day) was 0.052 mg/dL. The TC ([…], time 14 day) was 76.6 mg/dL, the TG ([…], time 14 day) was 133.4 mg/dL and the TP ([…], time 14 day) was 6.2 g/dL. It also gave a gamma-GTP ([…], time 14 day) of 1 IU/L, an A/G ([…], time 28 day) of 0.7 and an ALP ([…], time 28 day) of 1089.4 IU/L. For the same compound, the ALT ([…], time 28 day) was 34.4 IU/L, the AST ([…], time 28 day) was 56.6 IU/L and the BUN ([…], time 28 day) was 15.2 mg/dL. It also gave a CRE ([…], time 28 day) of 0.2 mg/dL, a Ca ([…], time 28 day) of 10.9 mg/dL and a Cl ([…], time 28 day) of 105.2 meq/L. For the same compound, the DBIL ([…], time 28 day) was 0.02 mg/dL, the GLC ([…], time 28 day) was 176.4 mg/dL and the IP ([…], time 28 day) was 5.9 mg/dL. The K ([…], time 28 day) was 3.7 meq/L, the LDH ([…], time 28 day) was 67.6 IU/L and the Na ([…], time 28 day) was 144.4 meq/L. It also gave a PL ([…], time 28 day) of 141.2 mg/dL, an RALB ([…], time 28 day) of 2.7 g/dL and a TBIL ([…], time 28 day) of 0.058 mg/dL. It also gave a TC ([…], time 28 day) of 67.8 mg/dL, a TG ([…], time 28 day) of 168.2 mg/dL and a TP ([…], time 28 day) of 6.4 g/dL. For the same compound, the gamma-GTP ([…], time 28 day) was 1 IU/L.
